Target: T1, human ALK5 (Homo sapiens, UniProt P36897)
T1 construct: human ALK5 (recombinant TGF β1 N-term GST-tagged, 80-end); GST (N); purchased
T1 sequence (P36897 80-503 limits assumed): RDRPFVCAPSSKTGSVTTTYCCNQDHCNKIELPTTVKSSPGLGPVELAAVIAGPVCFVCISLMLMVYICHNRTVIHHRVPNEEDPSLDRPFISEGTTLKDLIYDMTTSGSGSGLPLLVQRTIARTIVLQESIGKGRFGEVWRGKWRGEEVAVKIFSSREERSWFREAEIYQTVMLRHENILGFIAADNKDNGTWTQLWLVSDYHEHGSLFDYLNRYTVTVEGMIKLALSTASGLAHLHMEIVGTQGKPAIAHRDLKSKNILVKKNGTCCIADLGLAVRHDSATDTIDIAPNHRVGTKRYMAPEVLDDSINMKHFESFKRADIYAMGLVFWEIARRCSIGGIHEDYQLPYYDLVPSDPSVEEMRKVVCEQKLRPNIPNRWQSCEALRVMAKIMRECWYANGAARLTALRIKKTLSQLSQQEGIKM
Assay: ADP-GLO Kinases assay of ALK5 enzymatic activity
Assay type: biochemical
Conditions: purified recombinant human ALK5, TGFβ1 peptide substrate, pIC50 converted to pKi by Cheng-Prusoff, high ATP protocol (15 μM) for very potent compounds, 25° C.
Outline: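 Purified ALK5 preincubated 15 min with compound, then reacted with substrate and ATP; ADP formed read by ADP-Glo luminescence after 120 min or 60 min reaction, all steps at 25° C. 11-point concentration-response; pIC50 converted to pKi via Cheng-Prusoff.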

Row | Ki [nM] | SMILES
1 | ≤ 0.1 | CN1CCN(CCC(=O)Nc2cc(Nc3cc(-c4cc(Cl)ccc4F)nnc3NCc3cccc(O)c3)ccn2)CC1 [Example 101, N-(4-{[6-(5-chloro-2-fluorophenyl)-3-{[(3-hydroxyphenyl)methyl]amino}pyridazin-4-yl]amino}pyridin-2-yl)-3-(4-methylpiperazin-1-yl)propanamide]
2 | 6.31 | COc1nnc(-c2cc(Cl)ccc2F)cc1Nc1ccc2ncsc2c1 [Example C1, [6-(5-Chloro-2-fluorophenyl)-3-methoxypyridazin-4-yl]-1,3-benzothiazol-6-amine, reference compound]
3 | ≤ 0.1 | CN1CCCN(CC(=O)Nc2cc(Nc3cc(-c4cc(Cl)ccc4F)nnc3OC3CCOC3)ccn2)CC1 (racemic) [Example 72, N-(4-{[6-(5-chloro-2-fluorophenyl)-3-(oxolan-3-yloxy)pyridazin-4-yl]amino}pyridin-2-yl)-2-(4-methyl-1,4-diazepan-1-yl)acetamide]
4 | 0.126 to 0.316 | CN1CCN([C@H]2C[C@@H](C(=O)Nc3cc(Nc4cc(-c5cc(Cl)ccc5F)nnc4OC4CCOC4)ccn3)C2)CC1 (single isomer, unassigned) [Example 113, N-(4-{[6-(5-chloro-2-fluorophenyl)-3-(oxolan-3-yloxy)pyridazin-4-yl]amino}pyridin-2-yl)-3-(4-methylpiperazin-1-yl)cyclobutane-1-carboxamide]
5 | 0.126 to 0.316 | CN1CCN(CC23CC(C(=O)Nc4cc(Nc5cc(-c6cc(Cl)ccc6F)nnc5SCCO)ncn4)(C2)C3)CC1 [Example 182, N-(6-{[6-(5-chloro-2-fluorophenyl)-3-[(2-hydroxyethyl)sulfanyl]pyridazin-4-yl]amino}pyrimidin-4-yl)-3-[(4-methylpiperazin-1-yl)methyl]bicyclo[1.1.1]pentane-1-carboxamide]

The next lines start with the compound.

Row | SMILES | Ki [nM]
6 | CN1C[C@@H]2C[C@H]1CN2[C@H]1C[C@@H](C(=O)Nc2cc(Nc3cc(-c4cc(Cl)ccc4F)nnc3SCCO)ccn2)C1 [Example 87, Cis N-(4-{[6-(5-chloro-2-fluorophenyl)-3-[(2-hydroxyethyl)sulfanyl]pyridazin-4-yl]amino}pyridin-2-yl)-3-[(1S,4S)-5-methyl-2,5-diazabicyclo[2.2.1]heptan-2-yl]cyclobutane-1-carboxamide] | ≤ 0.1
7 | CN1CCN(CCOc2ccc3c(Nc4cc(-c5cc(Cl)ccc5F)nnc4OCCO)ccnc3c2)CC1 [Example 2, 2-{[6-(5-chloro-2-fluorophenyl)-4-({7-[2-(4-methylpiperazin-1-yl)ethoxy]quinolin-4-yl}amino)pyridazin-3-yl]oxy}ethan-1-ol] | ≤ 0.1
8 | CN1CCN(CCC(=O)Nc2cc(Nc3cc(-c4cc(Cl)ccc4F)nnc3S(C)(=N)=O)ccn2)CC1 (stereo not shown) [Example 19, N-(4-{[6-(5-chloro-2-fluorophenyl)-3-[imino(methyl)oxo-λ^6-sulfanyl]pyridazin-4-yl]amino}pyridin-2-yl)-3-(4-methylpiperazin-1-yl)propanamide] | 0.398 to 3.16
9 | COc1nnc(-c2cc(Cl)ccc2F)cc1Nc1ccnc(NC(=O)CCN2CCN(CC(F)(F)F)CC2)c1 [Example 13, N-(4-{[6-(5-chloro-2-fluorophenyl)-3-methoxypyridazin-4-yl]amino}pyridin-2-yl)-3-[4-(2,2,2-trifluoroethyl)piperazin-1-yl]propanamide] | ≤ 0.1
10 | CN1CCN([C@H]2C[C@H](C(=O)Nc3cc(Nc4cc(-c5cc(Cl)ccc5F)nnc4N(C)C)ccn3)C2)CC1 (single isomer, unassigned) [Example 96, trans N-(4-{[6-(5-chloro-2-fluorophenyl)-3-(dimethylamino)pyridazin-4-yl]amino}pyridin-2-yl)-3-(4-methylpiperazin-1-yl)cyclobutane-1-carboxamide] | ≤ 0.1

— patent US20250011299A1, “PYRIDAZINYL AMINO DERIVATIVES AS ALK5 INHIBITORS” (CHIESI FARMACEUTICI S.P.A., priority 2021, published 2025)
